Results published in EP0721336B1, “BENZAZOLE COMPOUNDS FOR USE IN THERAPY” (CANCER RESEARCH CAMPAIGN TECHNOLOGY LIMITED, priority 1993, dated 1995).
Where a name gives a salt, the structure may show the parent alone. Read-outs that look alike come from different tables or passages of the source. Marks after values point to notes of the source that are not given here.

How the values were obtained:
[1] = system: MCF-7 mammary carcinoma cells; assay: In vitro cytotoxicity assay (cell growth, propidium iodide fluorescence); format: cell-based, human
Excerpt: (§1) This is illustrated in Tables 1 and 2 at the end of the present description which show in vitro test results obtained in various sets of experiments for the cytotoxic activity of this compound CJM 126 against a range of human tumour cell lines, expressed in terms of IC50 values (concentration or dosage required to reduce cell growth or proliferation by 50%) calculated from dose-effect curves plotted for cultures of the cells in question.
(§2) In carrying out the above in vitro studies, the method used for conducting the cytotoxicity assays was generally substantially as follows: • Cells were maintained in a continuous logarithmic culture in Dulbecco's medium supplemented with 10% fetal calf serum and penicillin (100 IU/ml) and streptomycin (100 µg/ml). The cells were mildly trypsinized for passage and for use in assays. On day zero, 100µl of trypsinized tumour cells (1 x 10^4/ml) were plated in the wells of 96-well flat-bottom microtiter plates. […] On day two 50µl of the highest drug concentration was added to the wells of column 12 and from there serially diluted 3-fold to column 1 by serial transfer of 50µl using an 8-channel micropipette. The final volume of column 1 was adjusted to 100µl. No additions were made to the wells of rows A and B, which served as controls. The plates were further incubated for 5 days at 37°C and 5% CO2 in air. Each compound was tested in duplicate. • On day 7 the test was terminated by the addition of 100µl saline containing 0.002% w/v propidium iodide (Sigma), 0.3% drawing ink (Staedtler "Marsmatic 745" - Trade Mark) and 0.5% Triton X-100. The plates were kept at 4°C overnight before reading on an inverted microscope equipped with an automated scanning stage. Fluorescence intensity was measured in arbitrary units by a photomultiplier. An HP-87 computer controlled the movement of the stage and also collected and processed the data from the multiplier. • For each compound tested a dose-response curve was obtained and the IC50 value (the drug concentration at 50% inhibition of cell growth) was calculated.

[2] = system: MDA 468 mammary (ER-/EGFR+); assay: In vitro cytotoxicity assay; format: cell-based, human
Excerpt: as §1, §2

MCF 7-ADR mammary = assay: In vitro cytotoxicity and growth stimulation assay; format: cell-based, human; conditions: for IC50: Homo sapiens, NCI/ADR-RES
Excerpt: as §1, §2

[3] = system: BO (T61) human mammary carcinomas; assay: In vivo activity against implanted BO tumour; set-up: species or system NMRI-nu/nu female mice
MCF-7 mammary carcinoma = assay: In vivo activity against MCF-7 tumour implanted s.c.; conditions: i.v., 10 mg/kg/day, qd 6, 13, 20
[4] = Homo sapiens, MCF7, MCF 7-wt cells, values in text, read-out: IC50
[5] = Homo sapiens, MDA 468 cells, values in text, read-out: IC50
[6] = Homo sapiens, MCF-wt, column B, read-out: MCF-wt B IC50 at >micromolar concentrations
[7] = Homo sapiens, MCF-wt, column A, read-out: MCF-wt A IC50 at sub-micromolar concentrations
[8] = Homo sapiens, column B, read-out: MDA 468 B IC50 at >micromolar concentrations
[9] = Homo sapiens, column A, read-out: MDA 468 A IC50 at sub-micromolar concentrations
[10] = column B, read-out: MCF7-Adr B IC50 at >micromolar concentrations

## Cc1ccc2nc(-c3ccc(N)cc3)sc2c1 [2-(4-aminophenyl)-6-methylbenzothiazole, reference compound]
[1]; [4]
  IC50: 0.38 µM
[2]; [5]
  IC50: 0.4 µM

## Nc1cccc(-c2nc3ccccc3s2)c1 [CJM 129, 2-(3-Aminophenyl)benzothiazole]
[1]; [6]
  IC50: > 10 µM
MCF 7-ADR mammary; column A
  MCF7-Adr A IC50 at sub-micromolar concentrations: Inactive
MCF 7-ADR mammary; column B
  MCF7-Adr B IC50 at >micromolar concentrations: Inactive
[3]; i.p., 2 mg/kg/day, qd 27,34,41
  BWC: 2
[3]; i.p., 2 mg/kg/day, qd 27,34,41, d33
  Relative tumour volume (T/C%): 127%
[3]; i.p., 2 mg/kg/day, qd 27,34,41, d41
  Relative tumour volume (T/C%): 91%
[3]; i.p., 2 mg/kg/day, qd 27,34,41, d47
  Relative tumour volume (T/C%): 94%
[3]; i.p., 2 mg/kg/day, qd 27,34,41, d55
  Relative tumour volume (T/C%): 95%
[3]; i.p., 2 mg/kg/day, qd 27,34,41, d61
  Relative tumour volume (T/C%): 78%
[3]; i.p., 20 mg/kg/day, qd 27,34,41
  BWC: -3
[3]; i.p., 20 mg/kg/day, qd 27,34,41, d33
  Relative tumour volume (T/C%): 88%
[3]; i.p., 20 mg/kg/day, qd 27,34,41, d41
  Relative tumour volume (T/C%): 77%
[3]; i.p., 20 mg/kg/day, qd 27,34,41, d47
  Relative tumour volume (T/C%): 54%
[3]; i.p., 20 mg/kg/day, qd 27,34,41, d55
  Relative tumour volume (T/C%): 73%
[3]; i.p., 20 mg/kg/day, qd 27,34,41, d61
  Relative tumour volume (T/C%): 48* %
[3]; i.p., 200 mg/kg/day, qd 27,34,41
  BWC: -6
[3]; i.p., 200 mg/kg/day, qd 27,34,41, d33
  Relative tumour volume (T/C%): 78* %
[3]; i.p., 200 mg/kg/day, qd 27,34,41, d41
  Relative tumour volume (T/C%): 45* %
[3]; i.p., 200 mg/kg/day, qd 27,34,41, d47
  Relative tumour volume (T/C%): 32* %
[3]; i.p., 200 mg/kg/day, qd 27,34,41, d55
  Relative tumour volume (T/C%): 33* %
[3]; i.p., 200 mg/kg/day, qd 27,34,41, d61
  Relative tumour volume (T/C%): 36* %

## COc1ccc2nc(-c3ccc(N)cc3)sc2c1 [Compound 93002, 2-(4-Aminophenyl)-6-methoxybenzothiazole]
[1]; [7]
  IC50: 0.38 µM
[2]; [8]
  IC50: 7.64 µM

## CCS(=O)(=O)O.Nc1ccc(-c2nc3ccccc3s2)cc1 [Compound 93003, Ethanesulphonic acid salt of 2-(4-aminophenyl)benzothiazole]
[1]; MCF-wt, column A, read-out: MCF-wt A IC50 at sub-micromolar concentrations
  IC50: 0.0046 µM
MCF 7-ADR mammary; column C
  MCF7-Adr C Concentrations which stimulate cell growth: 3,10 µM
[2]; column A, read-out: MDA 468 A IC50 at sub-micromolar concentrations
  IC50: 0.0024 µM

## Nc1ccc(-c2nc3ccccc3s2)c(Cl)c1 [Compound 93004, 2-(4-Amino-2-Chlorophenyl)benzothiazole]
[1]; [7]
  IC50: 0.142 µM
[2]; [9]
  IC50: 0.003 µM

## COc1cccc2sc(-c3ccc(N)cc3Cl)nc12 [Compound 93005, 2-(4-amino-2-chlorophenyl)-4-methoxybenzothiazole]
[1]; [7]
  IC50: 0.063 µM
MCF 7-ADR mammary; column A, read-out: MCF7-Adr A IC50 at sub-micromolar concentrations
  IC50: 0.0465 µM
[2]; [9]
  IC50: 0.0022 µM

## c1ccc2sc(-c3ccc(N4CCCC4)cc3)nc2c1 [Compound 93006, 2-[4-(Pyrrolidin-1-yl)phenyl]benzothiazole]
[1]; [7]
  IC50: 0.867 µM

## c1ccc2sc(-c3ccc(N4CCCCC4)cc3)nc2c1 [Compound 93007, 2-[4-(Piperidin-1-yl)phenyl]benzothiazole]
[1]; [6]
  IC50: 2.77 µM

## c1ccc2sc(-c3ccc(N4CCOCC4)cc3)nc2c1 [Compound 93008, 2-[4-(Morpholin-4-yl)phenyl]benzothiazole]
[1]; [7]
  IC50: 0.16 µM

## O=P1(N(CCCl)CCCl)NCCCO1 (centres unmarked) [Cyclophosphamide, reference compound]
[3]; i.p., 150 mg/kg/day, qd 27
  BWC: -4
[3]; i.p., 150 mg/kg/day, qd 27, d33
  Relative tumour volume (T/C%): 117%
[3]; i.p., 150 mg/kg/day, qd 27, d41
  Relative tumour volume (T/C%): 27* %
[3]; i.p., 150 mg/kg/day, qd 27, d47
  Relative tumour volume (T/C%): 29* %
[3]; i.p., 150 mg/kg/day, qd 27, d55
  Relative tumour volume (T/C%): 19* %
[3]; i.p., 150 mg/kg/day, qd 27, d61
  Relative tumour volume (T/C%): 5* %

## Nc1ccc(-c2nc3ccccc3o2)cc1 [DF140, 2-(4-Aminophenyl)benzoxazole]
[1]; [7]
  IC50: 0.11 µM
[2]; [8]
  IC50: > 10 µM

## Nc1ccc(-c2nc3cc(OCc4ccccc4)ccc3s2)c(Cl)c1 [DF161, 2-(4-Amino-2-chlorophenyl)-5-benzyloxybenzothiazole]
[1]; [7]
  IC50: 0.001 µM
[1]; [6]
  IC50: 55.9 µM
MCF 7-ADR mammary; [10]
  IC50: 84.8 µM
[2]; [9]
  IC50: 0.0007 µM
[2]; [8]
  IC50: 2.84 µM

## COc1cc(OC)c2sc(-c3ccc(N)cc3)nc2c1 [DF162D, 2-(4-Aminophenyl)-5,7-dimethoxybenzothiazole]
[1]; [6]
  IC50: 19.3 µM
MCF 7-ADR mammary; [10]
  IC50: 20.9 µM
[2]; [9]
  IC50: 0.0035 µM

## Nc1ccc(-c2nc3cc(O)cc(O)c3s2)cc1 [DF162Eb, 2-(4-Aminophenyl)-5,7-dihydroxybenzothiazole]
[1]; [6]
  IC50: 49.6 µM
MCF 7-ADR mammary; [10]
  IC50: 13.9 µM
[2]; [8]
  IC50: 16.3 µM

## Nc1ccc(-c2nc3ccccc3s2)cc1 [Example IC, 2-(4-Aminophenyl)benzothiazole methanesulphonic acid salt]
[1]; [4]
  IC50: 0.0007 µM
[2]; [5]
  IC50: 0.0024 µM

## Nc1ccc(OS(=O)(=O)C(F)(F)F)c(-c2nc3ccccc3s2)c1 [Example XIV, 2-(3-Amino-6-trifluoromethylsulphonyloxyphenyl)benzothiazole]
[1]; Homo sapiens, MCF7, MCF-7 (wild type) cells, read-out: IC50
  IC50: 0.05 µM

## O=C1c2c(O)ccc(O)c2C(=O)c2c(NCCNCCO)ccc(NCCNCCO)c21 [Mitoxantrone, reference compound]
[3]; i.v., 10 mg/kg/day, qd 27
  BWC: -5
[3]; i.v., 10 mg/kg/day, qd 27, d33
  Relative tumour volume (T/C%): 58* %
[3]; i.v., 10 mg/kg/day, qd 27, d41
  Relative tumour volume (T/C%): 26* %
[3]; i.v., 10 mg/kg/day, qd 27, d47
  Relative tumour volume (T/C%): 6* %
[3]; i.v., 10 mg/kg/day, qd 27, d55
  Relative tumour volume (T/C%): 7* %
[3]; i.v., 10 mg/kg/day, qd 27, d61
  Relative tumour volume (T/C%): 4* %
MCF-7 mammary carcinoma; d9
  Relative tumour volume (T/C%): 52%
MCF-7 mammary carcinoma; d13
  Relative tumour volume (T/C%): 32* %
MCF-7 mammary carcinoma; d20
  Relative tumour volume (T/C%): 38* %
MCF-7 mammary carcinoma; d27
  Relative tumour volume (T/C%): 26* %
MCF-7 mammary carcinoma; d35
  Relative tumour volume (T/C%): 29* %
MCF-7 mammary carcinoma; d43
  Relative tumour volume (T/C%): 29* %
MCF-7 mammary carcinoma; relative to saline treated animals
  BWC (%): -10%

## CC[C@]1(O)C[C@H]2CN(CCc3c([nH]c4ccccc34)[C@@](C(=O)OC)(c3cc4c(cc3OC)N(C=O)[C@H]3[C@@](O)(C(=O)OC)[C@H](OC(C)=O)[C@]5(CC)C=CCN6CC[C@]43[C@@H]65)C2)C1 [Vincristine, reference compound]
[3]; i.p., 1 mg/kg/day, qd 27
  BWC: -6
[3]; i.p., 1 mg/kg/day, qd 27, d33
  Relative tumour volume (T/C%): 142%
[3]; i.p., 1 mg/kg/day, qd 27, d41
  Relative tumour volume (T/C%): 62%
[3]; i.p., 1 mg/kg/day, qd 27, d47
  Relative tumour volume (T/C%): 61%
[3]; i.p., 1 mg/kg/day, qd 27, d55
  Relative tumour volume (T/C%): 61%
[3]; i.p., 1 mg/kg/day, qd 27, d61
  Relative tumour volume (T/C%): 57%
